# Tested on: 616215-338-R-J1-PDC complex spheroid viability
# Assay: Anticancer human tumor 616215-338-R-J1-PDC patient-derived colon adenocarcinoma cell line growth inhibition [POLQ]
# Conditions: for IC50: curve of first compound; for viability, T/C: stronger effect = lower value
# Summary of the method: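 Patient-derived tumour cells were co-cultured with HUVEC and mesenchymal stem cells as multicellular spheroids at 37 °C. They were treated with POLQ inhibitors (novobiocin, ART-558, RP6685) alone or combined with other agents. Top concentrations were at or near clinical Cmax (otherwise 10 microM; SN-38 at 1 microM), decreasing in half-log steps.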
# [1] = second compound 0.0316 µM, first compound 0.0316 µM
# [2] = second compound 0.0316 µM, first compound 0.1 µM
# [3] = second compound 0.0316 µM, first compound 0.316 µM
# [4] = second compound 0.0316 µM, first compound 1 µM
# [5] = second compound 0.0316 µM, first compound 3.16 µM
# [6] = second compound 0.0316 µM, first compound 10 µM
# [7] = second compound 0.1 µM, first compound 0.0316 µM
# [8] = second compound 0.1 µM, first compound 0.1 µM
# [9] = second compound 0.1 µM, first compound 0.316 µM
# [10] = second compound 0.1 µM, first compound 1 µM
# [11] = second compound 0.1 µM, first compound 3.16 µM
# [12] = second compound 0.1 µM, first compound 10 µM
# [13] = second compound 0.316 µM, first compound 0.0316 µM
# [14] = second compound 0.316 µM, first compound 0.1 µM
# [15] = second compound 0.316 µM, first compound 0.316 µM
# [16] = second compound 0.316 µM, first compound 1 µM
# [17] = second compound 0.316 µM, first compound 3.16 µM
# [18] = second compound 0.316 µM, first compound 10 µM
# [19] = second compound 1 µM, first compound 0.0316 µM
# [20] = second compound 1 µM, first compound 0.1 µM
# [21] = second compound 1 µM, first compound 0.316 µM
# [22] = second compound 1 µM, first compound 1 µM
# [23] = second compound 1 µM, first compound 3.16 µM
# [24] = second compound 1 µM, first compound 10 µM
# [25] = second compound 3.16 µM, first compound 0.0316 µM
# [26] = second compound 3.16 µM, first compound 0.1 µM
# [27] = second compound 3.16 µM, first compound 0.316 µM
# [28] = second compound 3.16 µM, first compound 1 µM
# [29] = second compound 3.16 µM, first compound 3.16 µM
# [30] = second compound 3.16 µM, first compound 10 µM
# [31] = second compound 10 µM, first compound 0.0316 µM
# [32] = second compound 10 µM, first compound 0.1 µM
# [33] = second compound 10 µM, first compound 0.316 µM
# [34] = second compound 10 µM, first compound 1 µM
# [35] = second compound 10 µM, first compound 3.16 µM
# [36] = second compound 10 µM, first compound 10 µM
# 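Note: spheroids exposed to compounds for one week before readout.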
# 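Throughout, for viability, T/C: percent viability relative to DMSO vehicle wells taken as 100%.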
compound,measurement,setting,value
C=CC(=O)N1CCN(c2nc(=O)n(-c3c(C)ccnc3C(C)C)c3nc(-c4c(O)cccc4F)c(F)cc23)C(C)C1 (stereo not given) + COC1C(OC(N)=O)C(O)C(Oc2ccc3c(O)c(NC(=O)c4ccc(O)c(CC=C(C)C)c4)c(=O)oc3c2C)OC1(C)C,IC50,second compound 0.0316 µM,> 10 µM
same,IC50,second compound 0.1 µM,> 10 µM
same,IC50,second compound 0.316 µM,> 10 µM
same,IC50,second compound 1 µM,> 10 µM
same,IC50,second compound 3.16 µM,> 10 µM
same,IC50,second compound 10 µM,> 10 µM
same,"viability, T/C",[1],105%
same,"viability, T/C",[2],99.7%
same,"viability, T/C",[3],98.4%
same,"viability, T/C",[4],108%
same,"viability, T/C",[5],113%
same,"viability, T/C",[6],106%
same,"viability, T/C",[7],98.4%
same,"viability, T/C",[8],98.1%
same,"viability, T/C",[9],98%
same,"viability, T/C",[10],93.3%
same,"viability, T/C",[11],104%
same,"viability, T/C",[12],87.8%
same,"viability, T/C",[13],104%
same,"viability, T/C",[14],99.7%
same,"viability, T/C",[15],99.6%
same,"viability, T/C",[16],95%
same,"viability, T/C",[17],107%
same,"viability, T/C",[18],95.8%
same,"viability, T/C",[19],96.9%
same,"viability, T/C",[20],95.8%
same,"viability, T/C",[21],94%
same,"viability, T/C",[22],101%
same,"viability, T/C",[23],105%
same,"viability, T/C",[24],90.6%
same,"viability, T/C",[25],94.8%
same,"viability, T/C",[26],103%
same,"viability, T/C",[27],94.3%
same,"viability, T/C",[28],95%
same,"viability, T/C",[29],104%
same,"viability, T/C",[30],70.4%
same,"viability, T/C",[31],99.7%
same,"viability, T/C",[32],94.3%
same,"viability, T/C",[33],98%
same,"viability, T/C",[34],102%
same,"viability, T/C",[35],102%
same,"viability, T/C",[36],83.6%
CC(C)n1c(=O)n(C)c2cnc3cc(F)c(-c4ccc(OCCCN5CCCCC5)nc4)cc3c21 + COC1C(OC(N)=O)C(O)C(Oc2ccc3c(O)c(NC(=O)c4ccc(O)c(CC=C(C)C)c4)c(=O)oc3c2C)OC1(C)C,IC50,second compound 0.0316 µM,> 10 µM
same,IC50,second compound 0.1 µM,> 10 µM
same,IC50,second compound 0.316 µM,> 10 µM
same,IC50,second compound 1 µM,> 10 µM
same,IC50,second compound 3.16 µM,> 10 µM
same,IC50,second compound 10 µM,> 10 µM
same,"viability, T/C",[1],92.8%
same,"viability, T/C",[2],94.6%
same,"viability, T/C",[3],104%
same,"viability, T/C",[4],109%
same,"viability, T/C",[5],130%
same,"viability, T/C",[6],104%
same,"viability, T/C",[7],97.8%
same,"viability, T/C",[8],98.6%
same,"viability, T/C",[9],101%
same,"viability, T/C",[10],108%
same,"viability, T/C",[11],112%
same,"viability, T/C",[12],113%
same,"viability, T/C",[13],108%
same,"viability, T/C",[14],98.6%
same,"viability, T/C",[15],104%
same,"viability, T/C",[16],99.6%
same,"viability, T/C",[17],121%
same,"viability, T/C",[18],99.5%
same,"viability, T/C",[19],117%
same,"viability, T/C",[20],117%
same,"viability, T/C",[21],95.2%
same,"viability, T/C",[22],106%
same,"viability, T/C",[23],116%
same,"viability, T/C",[24],102%
same,"viability, T/C",[25],112%
same,"viability, T/C",[26],111%
same,"viability, T/C",[27],109%
same,"viability, T/C",[28],105%
same,"viability, T/C",[29],99.6%
same,"viability, T/C",[30],93.2%
same,"viability, T/C",[31],99.9%
same,"viability, T/C",[32],102%
same,"viability, T/C",[33],101%
same,"viability, T/C",[34],102%
same,"viability, T/C",[35],107%
same,"viability, T/C",[36],94.5%
CC1COCCN1c1cc(-c2ccnn2C)c2ccnc(-c3ccn[nH]3)c2n1 (stereo not given) + COC1C(OC(N)=O)C(O)C(Oc2ccc3c(O)c(NC(=O)c4ccc(O)c(CC=C(C)C)c4)c(=O)oc3c2C)OC1(C)C,IC50,second compound 0.0316 µM,0.862 µM
same,IC50,second compound 0.1 µM,0.608 µM
same,IC50,second compound 0.316 µM,0.619 µM
same,IC50,second compound 1 µM,0.61 µM
same,IC50,second compound 3.16 µM,0.804 µM
same,IC50,second compound 10 µM,0.635 µM
same,"viability, T/C",[1],102%
same,"viability, T/C",[2],90.4%
same,"viability, T/C",[3],70.4%
same,"viability, T/C",[4],48.4%
same,"viability, T/C",[5],31.5%
same,"viability, T/C",[6],33%
same,"viability, T/C",[7],96.4%
same,"viability, T/C",[8],91.1%
same,"viability, T/C",[9],60.8%
same,"viability, T/C",[10],44%
same,"viability, T/C",[11],30.5%
same,"viability, T/C",[12],38.7%
same,"viability, T/C",[13],99.6%
same,"viability, T/C",[14],86.1%
same,"viability, T/C",[15],59.3%
same,"viability, T/C",[16],46.1%
same,"viability, T/C",[17],29.7%
same,"viability, T/C",[18],40.2%
same,"viability, T/C",[19],103%
same,"viability, T/C",[20],84.8%
same,"viability, T/C",[21],58.9%
same,"viability, T/C",[22],46.1%
same,"viability, T/C",[23],29%
same,"viability, T/C",[24],36.1%
same,"viability, T/C",[25],96.1%
same,"viability, T/C",[26],86.4%
same,"viability, T/C",[27],68.6%
same,"viability, T/C",[28],47.6%
same,"viability, T/C",[29],28.7%
same,"viability, T/C",[30],30.9%
same,"viability, T/C",[31],96.8%
same,"viability, T/C",[32],86.9%
same,"viability, T/C",[33],57.3%
same,"viability, T/C",[34],47.7%
same,"viability, T/C",[35],29.1%
same,"viability, T/C",[36],31%
CCc1cc2c(N3CCc4c(cc(Cn5ccnc5)cc4-c4cn(C)nc4C(F)(F)F)C3=O)ccnc2c(OC)n1 + COC1C(OC(N)=O)C(O)C(Oc2ccc3c(O)c(NC(=O)c4ccc(O)c(CC=C(C)C)c4)c(=O)oc3c2C)OC1(C)C,IC50,second compound 0.0316 µM,> 10 µM
same,IC50,second compound 0.1 µM,> 10 µM
same,IC50,second compound 0.316 µM,> 10 µM
same,IC50,second compound 1 µM,9.75 µM
same,IC50,second compound 3.16 µM,9.64 µM
same,IC50,second compound 10 µM,8.33 µM
same,"viability, T/C",[1],97.2%
same,"viability, T/C",[2],108%
same,"viability, T/C",[3],111%
same,"viability, T/C",[4],106%
same,"viability, T/C",[5],80%
same,"viability, T/C",[6],52.8%
same,"viability, T/C",[7],106%
same,"viability, T/C",[8],108%
same,"viability, T/C",[9],92.9%
same,"viability, T/C",[10],106%
same,"viability, T/C",[11],77%
same,"viability, T/C",[12],50.3%
same,"viability, T/C",[13],96%
same,"viability, T/C",[14],103%
same,"viability, T/C",[15],115%
same,"viability, T/C",[16],102%
same,"viability, T/C",[17],66.5%
same,"viability, T/C",[18],53.8%
same,"viability, T/C",[19],105%
same,"viability, T/C",[20],98.7%
same,"viability, T/C",[21],99%
same,"viability, T/C",[22],100%
same,"viability, T/C",[23],81.4%
same,"viability, T/C",[24],49.3%
same,"viability, T/C",[25],106%
same,"viability, T/C",[26],100%
same,"viability, T/C",[27],103%
same,"viability, T/C",[28],98.2%
same,"viability, T/C",[29],74.8%
same,"viability, T/C",[30],49.2%
same,"viability, T/C",[31],109%
same,"viability, T/C",[32],97.7%
same,"viability, T/C",[33],102%
same,"viability, T/C",[34],93.1%
same,"viability, T/C",[35],67.7%
same,"viability, T/C",[36],46.7%
COc1ccc([C@@H](O)c2cc(-c3ncnc4cc(N5CCOCC5)ccc34)c(F)cc2Cl)nn1 + COC1C(OC(N)=O)C(O)C(Oc2ccc3c(O)c(NC(=O)c4ccc(O)c(CC=C(C)C)c4)c(=O)oc3c2C)OC1(C)C,IC50,second compound 0.0316 µM,> 10 µM
same,IC50,second compound 0.1 µM,> 10 µM
same,IC50,second compound 0.316 µM,> 10 µM
same,IC50,second compound 1 µM,> 10 µM
same,IC50,second compound 3.16 µM,> 10 µM
same,IC50,second compound 10 µM,> 10 µM
same,"viability, T/C",[1],109%
same,"viability, T/C",[2],105%
same,"viability, T/C",[3],110%
same,"viability, T/C",[4],99.4%
same,"viability, T/C",[5],105%
same,"viability, T/C",[6],76.1%
same,"viability, T/C",[7],109%
same,"viability, T/C",[8],99%
same,"viability, T/C",[9],109%
same,"viability, T/C",[10],109%
same,"viability, T/C",[11],113%
same,"viability, T/C",[12],73.5%
same,"viability, T/C",[13],107%
same,"viability, T/C",[14],101%
same,"viability, T/C",[15],108%
same,"viability, T/C",[16],100%
same,"viability, T/C",[17],114%
same,"viability, T/C",[18],77.7%
same,"viability, T/C",[19],96.7%
same,"viability, T/C",[20],101%
same,"viability, T/C",[21],116%
same,"viability, T/C",[22],117%
same,"viability, T/C",[23],110%
same,"viability, T/C",[24],66.3%
same,"viability, T/C",[25],95.7%
same,"viability, T/C",[26],104%
same,"viability, T/C",[27],100%
same,"viability, T/C",[28],119%
same,"viability, T/C",[29],108%
same,"viability, T/C",[30],69.7%
same,"viability, T/C",[31],104%
same,"viability, T/C",[32],94.2%
same,"viability, T/C",[33],111%
same,"viability, T/C",[34],107%
same,"viability, T/C",[35],110%
same,"viability, T/C",[36],66.5%
